Where a name gives a salt, the structure may show the parent alone. Read-outs that look alike come from different tables or passages of the source.
What was measured:
[1] = Toxicity on nucleated cells, mice B lymph gland cells; type: cell-based; details: mouse, 1 hour 30, trypan blue, read-out: LD 50 (concentration leading to a mortality of 50%)
Procedure: (§1) B.2: Study of the toxicity on nucleated cells
(§2) The solutions of the amphotericine B derivatives are prepared similarly to those mentioned in paragraph B.1.
(§3) The cells are prepared by placing 20 ml of blood diluted to 1/2 with 0.9% NaCl into a tube together with 10 ml of Ficoll-hypaque, and the mixture is centrifuged at 2000 rpm for 30 minutes. The cell nuclei are recovered and washed twice with PBS buffer containing 5% of foetal calf serum.
(§4) The cells are prepared by suspending 1.14×10^6 cells/ml in RPMI 1640 containing 2.5% of foetal calf serum and by filling each well with 150 μl. 50 μl of each dilution of the derivatives are added and also one control (5% glucose solution).
(§5) The cells are then incubated in a steam cabinet at a CO2 concentration of 5% for 1 hour 30 at 37° C. or at ambient temperature.
(§6) To evaluate the toxicity of the derivatives, a cell count in the presence of trypan blue is made, and the LD 50 (concentration of the derivative leading to a mortality of 50%) is calculated with respect to the control (5% glucose solution) for each concentration of each derivative.

red corpuscles = test: Toxicity on red corpuscles (lysis), mice; type: cell-based; details: 37° C., 1 hour 30, 90 min, 90 min, read-out: LD 50 (dose which leads to lysis in 50% of the erythrocytes)
Procedure: (§7) B.1: Study of the toxicity on red corpuscles
(§8) All the solutions of the AmB derivatives according to the invention were prepared immediately before use by diluting 4 mg of substance in 100 μl of 5% glucose solution, and then, after 15 minutes protected from light, 100 μl of sterile distilled water are added, and the mixture is made up to stock solutions of 4 mg/ml with a 5% glucose solution. For comparative study of the effects of AmB, 4 mg of FUNGIZONE are diluted with 1 ml of 5% glucose.
(§9) The cells are prepared by placing 1 ml of a peripheral blood sample into a tube together with Ficollhypaque to remove the lymphocytes, and then centrifuging the mixture at 2000 rpm for 20 minutes. The remaining red corpuscles are recovered, washed once with 0.9% NaCl and then twice with 150 Mm KCl, 0.5 Mm tris-HCl, pH 7.4.
(§10) A 1.25% suspension is then prepared with 150 mM KCl solution, 0.5 mM tris-HCl, pH 7.4, and 150 μl thereof are distributed in wells along with 50 μl of each of the dilutions of the derivatives, plus a control well (5% glucose solution).
(§11) The cells are then incubated at 37° C. in a steam cabinet for 1 hour 30.
(§12) To evaluate the cell lysis, haemoglobin is essayed by removing 100 μl of the supernatant in each well and diluting the sample with 1 ml of distilled water.
(§13) The haemoglobin concentration is calculated by measuring the optical density at 540 nm and taking into account the absorption of the derivatives of amphotericine B.
(§14) LD 50 is the dose which leads to lysis in 50% of the erythrocytes (a control of 100% lysis is obtained with distilled water, and reference lysis of 0% is obtained with the 5% glucose solution).

[2] = Toxicity on nucleated cells, mice T lymph gland cells; type: cell-based; details: mouse, 1 hour 30, trypan blue, read-out: LD 50 (concentration leading to a mortality of 50%)
Procedure: as §1, §2, §3, §4, §5, §6

[3] = Toxicity on nucleated cells, human thymocytes; type: cell-based; details: 1 hour 30, trypan blue, read-out: LD 50 (concentration leading to a mortality of 50%)
Procedure: as §1, §2, §3, §4, §5, §6

[4] = Toxicity on nucleated cells, human bone marrow; type: cell-based; details: 1 hour 30, trypan blue, read-out: LD 50 (concentration leading to a mortality of 50%)
Procedure: as §1, §2, §3, §4, §5, §6

[5] = Toxicity on red corpuscles (lysis), human; type: cell-based; details: human, red corpuscles, 37° C., 1 hour 30, read-out: LD 50 (dose which leads to lysis in 50% of the erythrocytes)
Procedure: as §7, §8, §9, §10, §11, §12, §13, §14

[6] = Toxicity on nucleated cells, DAUDI human lymphoma B; type: cell-based; details: human, daudi lymphoma b cells, 1 hour 30, trypan blue, read-out: LD 50 (concentration leading to a mortality of 50%)
[7] = Toxicity on nucleated cells, mice thymocytes; type: cell-based; details: mouse, thymocytes, 1 hour 30, trypan blue, read-out: LD 50 (concentration leading to a mortality of 50%)
X 63 (mice lymphoma B) = test: Toxicity on nucleated cells, X 63 mice lymphoma B; type: cell-based; details: 1 hour 30, trypan blue, 90 min, read-out: LD 50 (concentration leading to a mortality of 50%)
Saccharomyces cerevisiae = test: Growth inhibition in liquid medium (Sabouraud broth); type: cell-based; details: Saccharomyces cerevisiae, 18 h, read-out: IC 50 (growth-inhibiting concentration of 50%)
Procedure: (§15) A.1 : Study of the antibiotic efficiency of AmB derivatives in liquid medium against different yeasts
(§16) The antibiotic efficiency was tested by the growth inhibition method in liquid medium (Sabouraud broth) in the presence of different concentrations of the derivatives studied.
(§17) A yeast suspension was cultivated in a broth in such a manner that about 1×10^2 cell/ml were obtained.
(§18) The tubes containing the different concentrations of antifungal substance were inoculated with the same amount of yeast cells, and were then incubated at 28° C. for 18 hours with stirring. For each concentration of antifungal substance, two identical tubes were prepared.
(§19) The inhibition of fungal growth corresponding to the different concentrations was evaluated for each molecule by spectrophotometry at 620 nm and expressed in percent with respect to a reference solution without antifungal substance.

Pytirosporum orbiculare = test: as above; type: cell-based; details: read-out: IC 50 (growth-inhibiting concentration of 50%)
Procedure: as §15, §16, §17, §18, §19

Candida albicans = test: as above; type: cell-based; details: read-out: IC 50 (growth-inhibiting concentration of 50%)
Procedure: as §15, §16, §17, §18, §19

Cryptoccocus neoformans = test: as above; type: cell-based; details: read-out: IC 50 (growth-inhibiting concentration of 50%)
Procedure: as §15, §16, §17, §18, §19

PBL = test: Toxicity on nucleated cells, human PBL; type: cell-based; details: human PBL, 1 hour 30, trypan blue; 90 min; read-out: LD 50 (concentration leading to a mortality of 50%)
Procedure: as §1, §2, §3, §4, §5, §6

Aspergillus fumigatus = test: Diffusion method in agar-agar medium (Sabouraud agar-agar); type: cell-based
Procedure: (§20) A.2 : Study of the antibiotic efficiency of amphotericine B derivatives in agar-agar medium against Aspergillus
(§21) The antibiotic activity was tested by the diffusion method in agar-agar medium (Sabouraud agar-agar).
(§22) The efficiency of each molecule was determined by the size of the growth-inhibiting zone around a WHATMAN 3M paper disc impregnated with the antibiotic substance of a given concentration.
(§23) A suspension of Aspergillus spores in a broth was prepared, 0.2 ml of this suspension was used to inoculate at its surface an agar-agar medium which was solidified in such a manner that a homogeneous growth layer was obtained. After spreading, the WHATMAN 3M paper discs (diameter: 1 cm) were placed on the surface of the agar-agar, and then impregnated with 0.1 ml of the antibiotic substance at different concentrations.

Aspergillus flavus = test: as above; type: cell-based; details: Aspergillus flavus, read-out: concentration giving a growth inhibition of 1 cm around a disc in solid medium
Procedure: as §20, §21, §22, §23

[8] = Solubility of the AmB derivatives; type: physicochemical; details: 5% glucose solution, ambient temperature
Procedure: C.2. Solubility of the AmB derivatives according to the present invention
AmB or the derivatives obtained are dissolved at ambient temperature in a 5% glucose solution up to saturation.

Candida albicans B 2630 = test: Growth inhibition in liquid medium (Sabouraud broth); type: cell-based; details: B2630, 18 h, read-out: IC 50 (growth-inhibiting concentration of 50%)
Procedure: as §15, §16, §17, §18, §19

[9] = background; cited from earlier work
[10] = Toxicity on nucleated cells, human PBL; type: cell-based; details: human, pbl, human PBLs; AmB 12 derivative, comparison of different catalysts (Table 4); read-out: LD 50
Procedure: as §1, §2, §3, §4, §5, §6

[11] = Sabouraud broth, 28° C., 18 hours
[12] = Sabouraud agar-agar, disc diameter 1 cm, 0.1 ml

## CC1OC[C@@H](O)[C@H]([C@H](O)C(=O)CN[C@@H]2[C@H](O)[C@H](O[C@H]3/C=C/C=C/C=C/C=C/C=C/C=C/C=C/[C@H](C)[C@@H](O)[C@@H](C)[C@H](C)OC(=O)C[C@H](O)C[C@H](O)CC[C@@H](O)[C@H](O)C[C@H](O)C[C@]4(O)C[C@H](O)[C@@H](C(=O)O)[C@H](C3)O4)O[C@H](C)[C@H]2O)O1 (stereo partly drawn) [AmB 22 F, 1-deoxy-1-amino-4,6-O-ethylidene-D-fructosyl-AmB]
[1]
  CC50 at 1.5 h: 20 µM
Red corpuscles
  HC50: 90 µM
[2]
  CC50 at 1.5 h: 20 µM
[3]
  CC50 at 1.5 h: > 300 µM
[4]
  CC50 at 1.5 h: 1000 µM
[5]
  HC50 at 1.5 h: 100 µM
[6]
  CC50 at 1.5 h: > 1000 µM
[7]
  CC50 at 1.5 h: 3.5 µM
X 63 (mice lymphoma B)
  CC50: > 1000 µM
Saccharomyces cerevisiae; [11]
  IC50: 1.6 µM
Pytirosporum orbiculare; [11]
  IC50: 0.18 µM
Candida albicans; [11]
  IC50: 0.56 µM
Cryptoccocus neoformans; [11]
  IC50: 0.25 µM
PBL
  CC50: > 1000 µM
Aspergillus fumigatus; [12]
  concentration giving a growth inhibition of 1 cm around a disc in solid medium: 5 × 10^-4 molarity
Aspergillus flavus; [12]
  IC (1 cm inhibition zone): 150 µM

## C[C@@H]1[C@H](O)[C@@H](C)/C=C/C=C/C=C/C=C/C=C/C=C/C=C/[C@H](O[C@@H]2O[C@H](C)[C@@H](O)[C@H](N)[C@@H]2O)C[C@@H]2O[C@](O)(C[C@@H](O)C[C@@H](O)[C@H](O)CC[C@@H](O)C[C@@H](O)CC(=O)O[C@H]1C)C[C@H](O)[C@H]2C(=O)O [AmB, amphotericine B, reference compound]
[8]
  solubility (in words): insoluble
Saccharomyces cerevisiae
  IC50: 0.54 µM
Pytirosporum orbiculare; 18 h
  IC50: < 0.01 µM
Candida albicans; Candida albicans, 18 h
  IC50: 0.08 µM
Cryptoccocus neoformans; 18 h
  IC50: 0.08 µM
Candida albicans B 2630
  IC50: 0.35 µM
[9]
  solubility in water (in words): sparingly soluble in water
Aspergillus fumigatus; Aspergillus fumigatus, read-out: concentration giving a growth inhibition of 1 cm around a disc in solid medium
  IC (1 cm inhibition zone): 50 µM
Aspergillus flavus
  IC (1 cm inhibition zone): 50 µM

## C[C@@H]1[C@H](O)[C@@H](C)/C=C/C=C/C=C/C=C/C=C/C=C/C=C/[C@H](O[C@@H]2O[C@H](C)[C@@H](O)[C@H](NC3O[C@H](C(N)=O)[C@@H](O)[C@H](O)[C@H]3O)[C@@H]2O)C[C@@H]2O[C@](O)(C[C@@H](O)C[C@@H](O)[C@H](O)CC[C@@H](O)C[C@@H](O)CC(=O)O[C@H]1C)C[C@H](O)[C@H]2C(=O)O (some centres unmarked) [Uncatalyzed NMG salt, reference compound]
[10]
  CC50 at 1.5 h: 80 µM

— patent US5314999A, “Derivatives of basic polyene macrolides and their preparation” (Laboratoires Mayoly-Spindler, priority 1989, dated 1994)
